Columns and labels:
alpha-synuclein = target: T1, alpha-synuclein (Homo sapiens, UniProt P37840); test: Alpha-synuclein thioflavin T assay; assay type: biochemical; conditions: 250 μM compound on pre-formed aggregates of 50 μM alpha-synuclein, 24 hours; 100% = alpha synuclein + DMSO
T1 construct: purchased Proteos RP-003
Experimental: Recombinant alpha-synuclein monomeric protein was procured from Proteos (catalog no. RP-003, 10 mg/ml or 700 μM concentration). Prior to aggregation, the protein was centrifuged at 10,000 rpm for 5 minutes to remove any pre-existing aggregates. The stock solution was then diluted to 50 μM concentration in filtered 1×PBS and allowed to aggregate with continuous shaking at 1000 rpm on a thermomixer for 96 hours at 37° C. After 96 hours, the ThT fluorescence was checked for the sample to confirm aggregate formation using ThT, a well-known amyloid marker dye. The ThT active aggregates were then used for high-throughput small molecule inhibitor screening. For screening small molecule disaggregators, 10 mM DMSO stock solutions of small molecules were diluted to 250 μM in the reaction mix containing 20 μM ThT and aggregates formed by 50 μM alpha-synuclein. As a positive/vehicle control, 100% DMSO stock was diluted to 2.5% to match the DMSO in the small molecule conditions. ThT fluorescence assay was performed for 24 hours with 3 replicates per sample in a 384 well plate (Corning low volume black/clear flat bottom) on a microplate reader (Molecular Devices SpectraMax iD5 or BioTek Agilent Synergy Neo2) using excitation wavelength of 440 nm and emission wavelength of 490 nm. The temperature was maintained at 37° C. and the plate was continuously shaken throughout the measurement. All data were plotted and analyzed in GraphPad Prism.

[1] = target: TDP-43 peptide (amino acids 307-319) (Homo sapiens, UniProt Q13148); test: TDP-43 thioflavin T assay; assay type: biochemical; conditions: ThT RFU at 15 hours; 100% = TDP-43 + DMSO
Experimental: The effect of compounds on fibril formation by TDP-43 peptide (amino acids 307-319) was screened using a thioflavin T (ThT) fluorescence assay in a 96-well plate format. The monomeric form of TDP-43 307-319 was stored in HFIP at −20° C. in 32 μL vials and then thawed on ice. After thawing a stock aliquot on ice, 16 μL of HFIP and 432 μL 100 mM ammonium acetate was added. This mix was pipetted three times. Three such prepared aliquots were combined to create a master mix. 400 μM of ThT stock was prepared by dissolving 31.8 mg ThT in 10 mL Milli-Q water to make […] stock. The 10 mM ThT stock was then diluted to 400 μM with Milli-Q water and stored at −20° C. until use. 20 μL aliquots of compounds were used as initial starting material. 98 μL of master mix was then added to each well of 96-well plate, and then 2 μL of compounds was added to each well testing a compound. The plate was spun at 4700×rpm to remove bubbles at 4° C., and then the plate measurements were collected. ThT fluorescence was measured through the bottom of the plate using 440- and 480-nm excitation and emission filters for 15 hours at 0.5-hour intervals. Each well was scanned at 5 points with a 1.25 mm distance between points. The relative fluorescence unit (RFU) at 15 hours was used to rank the percent of aggregation for all tested compounds.

[2] = target: T2, TDP-43 cytosolic aggregates (TDP-43-tGFP-U2OS cell line) (Homo sapiens, UniProt Q13148); test: TDP-43 cytoplasmic aggregation assay; assay type: cell-based; conditions: 100 μM compound; TDP-43-tGFP-U2OS cells; lower = more potent
T2 construct: expressed in transfected cells; host or cells: U2OS (recombinant, IPTG-inducible TDP-43 expression)
Experimental: Recombinant TDP-43-tGFP-U2OS cell line was thawed (2×10^6 cells per T75) and was maintained in DMEM-F12 supplemented with 10% FBS at 37° C. in a humidified 5% CO2 atmosphere. Cells were plated in 96-well plates with a density of 10,000 cells (+/−2000 cells) per well. Cells were incubated with the test compounds and isopropyl β-D-1-thiogalactopyranoside (IPTG) 1 mM to induce TDP43 expression for 24 hours. The assays were carried out in triplicate. Cells were treated with 125-250 μM of sodium arsenite for 120 min and TDP-43 punctae formation was quantified in both cell cytoplasm and cell nucleus, in living cells. The nuclei were stained using Hoechst (0.5 μg/ml) and the fluorescence was measured using a Cell Insight High-Content Bioimager from Thermo Fisher. To detect the Hoechst, the filters used were 380/10 and 460/10 nm for excitation and emission, respectively, and to detect the TDP-43 punctae, the filters were 488/20 and 520/20 nm, respectively. The images were obtained with an objective of 20×. Cell quantification was performed delimitating the region of interest of the nuclei and after quantification the average of each triplicate was performed. For granule quantification the spot detector application from Cell Software delimitated 2 regions of interest, the nuclei and cytosol. This software quantified the average number of granules per nuclei and the average number of granules per cytosol in each well.

Aβ 1-42 = target: T3, Aβ 1-42 (Homo sapiens, UniProt P05067); test: Aβ42 thioflavin T assay; assay type: biochemical; conditions: 50 μM compound, 5 μM Aβ 1-42, ThT RFU at 15 hours; 100% = Aβ + DMSO; read-out: Aβ42 % aggregation at 50 μM
T3 construct: The monomeric form of Aβ 1-42 (rPeptide, A1170-025) film; purchased rPeptide A1170-025
Experimental: The effect of compounds on fibril formation by Aβ 1-42 was screened using a thioflavin T (ThT) fluorescence assay in a 96-well plate format. The monomeric form of Aβ 1-42 (rPeptide, A1170-025) film was diluted with 10 mM NaOH to form a 1 mg/ml stock solution. This stock solution was then further diluted with cell culture grade water (Cytiva, SH30529.01) and 10×PBS (VWR, 97063-660) to a working concentration of 100 μM in 1×PBS on ice. Compounds were initially dissolved in 100% DMSO (MilliporeSigma, D2650) at room temperature to make a 10 mM stock and stored at −20° C. prior to the experiment. On the day of the experiment, the stock solution was diluted with 1×PBS to a concentration of 500 μM, containing 5% DMSO. The reaction mixture, containing 10 μM ThT […], 5 μM Aβ 1-42, and 1×PBS was prepared in 15 ml Falcon centrifuge tubes (Corning, 352070) and kept on ice during preparation. The reaction mixture was then dispensed into multiple wells of a 96-well half-area, low-binding polyethylene non-treated plate (Corning, 3880) with a clear bottom, at 90 μL per well. To each well, 10 μL of 500 μM compound stock was added, with three replicates per compound. To account for the presence of DMSO, 5% DMSO in 1×PBS was used as the vehicle control. The positive control consisted of 10 μM ThT, 5 μM Aβ 1-42, and 0.5% DMSO in 1×PBS, while the negative control consisted of 10 μM ThT and 0.5% DMSO in 1×PBS. The plates were sealed with polyester sealing tape (VWR, 89134-430) to prevent evaporation and then placed in a plate reader (Molecular Devices SpectraMax ID5) at 37° C. without agitation. ThT fluorescence was measured through the bottom of the plate using 440- and 480-nm excitation and emission filters for 15 hours at 0.5-hour intervals. Each well was scanned at 5 points with a 1.25 mm distance between points. The relative fluorescence unit (RFU) at 15 hours was used to rank the percent of aggregation for all tested compounds and controls.

T2 sequence (Q13148 whole entry): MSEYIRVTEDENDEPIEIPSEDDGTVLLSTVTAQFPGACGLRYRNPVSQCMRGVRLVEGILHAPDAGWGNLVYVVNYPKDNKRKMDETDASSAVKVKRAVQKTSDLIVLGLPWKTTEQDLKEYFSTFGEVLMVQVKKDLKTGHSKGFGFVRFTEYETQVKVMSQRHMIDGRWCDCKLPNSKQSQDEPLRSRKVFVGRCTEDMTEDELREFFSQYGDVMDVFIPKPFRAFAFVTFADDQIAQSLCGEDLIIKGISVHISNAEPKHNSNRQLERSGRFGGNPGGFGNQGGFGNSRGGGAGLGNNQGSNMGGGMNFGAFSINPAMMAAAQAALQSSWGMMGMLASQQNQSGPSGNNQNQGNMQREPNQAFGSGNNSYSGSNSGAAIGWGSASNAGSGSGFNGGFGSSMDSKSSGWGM
T3 sequence (P05067 672-713 limits assumed): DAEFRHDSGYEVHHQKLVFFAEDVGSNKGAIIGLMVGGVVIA

CC(=O)Nc1ccc2c(c1)CCN(CCc1ccccc1)C2 [Compound 3, N-(2-Phenethyl-1,2,3,4-tetrahydroisoquinolin-6-yl) acetamide] was tested, and the “% alpha synuclein aggregation as measured on ThT” value (“% alpha synuclein aggregation” for short) (alpha-synuclein) was 82.8%, the “% aggregation TDP-43 ThT at 50 μM TDP-43” value [1] was 78.9% and the “% remaining TDP-43 cytosolic aggregates after 100 μM compound addition” value (“% remaining TDP-43 cytosolic aggregates” below) [2] was greater than 99.9%. It also gave an activity at 50 µM (Aβ 1-42) greater than 99.9%.
CNC(=O)c1ccc2c(c1)CCN(CCc1cccc(Cl)c1)C2 [Compound 4, 2-(3-chlorophenethyl)-N-methyl-1.2.3.4-tetrahydroisoquinoline-6-carboxamide] was tested, and the “% alpha synuclein aggregation” value (alpha-synuclein) was greater than 99.9%, the “% remaining TDP-43 cytosolic aggregates” value [2] was 59.1% and the activity at 50 µM (Aβ 1-42) was 74.6%.
With Clc1cccc(CCN2CCc3ccccc3C2)c1 [Compound 5, 2-(3-chlorophenethyl)-1,2,3,4-tetrahydroisoquinoline] the “% alpha synuclein aggregation” value (alpha-synuclein) was 99%, the “% aggregation TDP-43 ThT at 50 μM TDP-43” value [1] was 64.6% and the “% remaining TDP-43 cytosolic aggregates” value [2] was 40.7%.
For CC(=O)Nc1ccc2c(c1)CN(CCc1cccc(Cl)c1)CC2 [Compound 6, N-(2-(3-Chlorophenethyl)-1,2,3,4-tetrahydroisoquinolin-7-yl) acetamide], the “% alpha synuclein aggregation” value (alpha-synuclein) was greater than 99.9%, the “% aggregation TDP-43 ThT at 50 μM TDP-43” value [1] was 73.1% and the “% remaining TDP-43 cytosolic aggregates” value [2] was 93.7%. The activity at 50 µM (Aβ 1-42) was 59.7%.
CC(=O)Nc1ccc2c(c1)CN(CCc1ccc(O)c(Cl)c1)C2 [Compound 12, N-(2-(3-Chloro-4-hydroxyphenethyl)isoindolin-5-yl) acetamide] was tested, and the “% aggregation TDP-43 ThT at 50 μM TDP-43” value [1] was 43.5%.
For CC(=O)Nc1ccc2c(c1)CN(CCc1ccc(O)c(C)c1)C2 [Compound 13, N-(2-(4-Hydroxy-3-methylphenethyl)isoindolin-5-yl) acetamide], the “% aggregation TDP-43 ThT at 50 μM TDP-43” value [1] was 48.8%.
For CCc1cc(CCN2Cc3ccc(NC(C)=O)cc3C2)ccc1O [Compound 14, N-(2-(3-Ethyl-4-hydroxyphenethyl)isoindolin-5-yl) acetamide], the “% aggregation TDP-43 ThT at 50 μM TDP-43” value [1] was 48.6%.
For CC(=O)N(C)c1ccc2c(c1)CN(CCc1ccc(O)c(Cl)c1)C2.Cl [Compound 15, N-(2-(3-Chloro-4-hydroxyphenethyl)isoindolin-5-yl)-N-methylacetamide hydrochloride], the “% aggregation TDP-43 ThT at 50 μM TDP-43” value [1] was 47.2%.

— patent US20260242340A1, “COMPOUNDS AND METHODS FOR TREATING PROTEIN AGGREGATION DISEASES” (ACELOT, INC., priority 2023, published 2026)
